The values that follow come from patent publication US20220143021A1 (Cardiff Oncology, Inc., priority 2019, published 2022).

In data set [1] the test system is human prostate tissues. Kind of data set: organ bath, endothelin-1-induced contractions of human prostate strips. To be noted: read-out: inhibition of endothelin-1-induced contraction. As to the method:
(§1) Human prostate tissues were obtained from patients undergoing radical prostatectomy for prostate cancer (n=107). Patients who underwent previous transurethral resection of the prostate (TURP) were excluded. This study was carried out in accordance with the Declaration of Helsinki of the World Medical Association, and has been approved by the ethics committee of the Ludwig-Maximilians University, Munich, Germany (Ethikkommission bei der LMU Munchen, approval number 19-737). Informed consent was obtained from all patients. According to the ethical approval, samples and data were collected and analyzed anonymously, so that no data on patients' characteristics were stored. […]
(§2) Prostate strips (6×3×3 mm) were mounted in 10 ml aerated (95% 02 and 5% CO2) tissue baths (Danish Myotechnology, Aarhus, Denmark), containing Krebs-Henseleit solution (37° C., pH 7.4) with following composition: 118 mM NaCl, 4.7 mM KCl, 2.55 mM CaCl2), 1.2 mM KH2PO4, 1.2 mM MgSO4, 25 mM NaHCO3, 7.5 mM glucose. […] Only one curve was recorded with each sample, i. e. for one agonist, or for electric field stimulation (EFS).
(§3) After mounting in organ bath chambers, preparations were stretched to 4.9 mN and left to equilibrate for 45 min. […] After the equilibration period, maximum contraction induced by 80 mM KCl was assessed. […]

Data set [2] has as its system human prostate tissues. Nature of the data set: organ bath, ATP-induced contractions of human prostate strips. The note with it: read-out: inhibition of ATP-induced contraction. The protocol: as §1, §2, §3
A short description of data set [3]: CCK-8 viability (cytotoxicity) assay. The data set is classed as cell-based. The note with it: human, WPMY-1 cells (immortalized prostate stromal cells), read-out: decrease of viability. As to the method:
WPMY-1 cells are an immortalized cell line obtained from human prostate stroma without prostate cancer (Webber et al., 1999). Cells were obtained from American Type Culture Collection (ATCC; Manassas, Va., USA), and kept in RPMI 1640 (Gibco, Carlsbad, Calif., USA) supplemented with 10% fetal calf serum (FCS) and 1% penicillin/streptomycin at 37° C. with 5% CO2. Before addition of onvansertib or DMSO, the medium was changed to a FCS-free medium. For Western blot analysis, cells were lyzed using radioimmunoprecipitation assay (RIPA) buffer (Sigma-Aldrich, St. Louis, Mo., USA), and removed from flasks after 15 min of incubation on ice. Cell debris was removed by centrifugation (10,000 g, 10 min, 4° C.), and different aliquots of supernatants were either subjected to protein determination, or boiled with SDS sample buffer.
Viability of cells was assessed using the Cell Counting Kit-8 (CCK-8) (Sigma-Aldrich, St. Louis, Mo., USA). […] Subsequently, cells were grown for different periods (24, 48, 72 h). Separate controls were performed for each period. At the end of this period, 10 μl of [2-(2-methoxy-4-nitrophenyl)-3-(4-nitrophenyl)-5-(2,4-disulfophenyl)-2H-tetrazolium monosodium salt (WST-8) from CCK-8 was added, and absorbance in each well was measured at 450 nm after incubation for 2 h at 37° C.

For the next data set, the system named is CK2. To be noted: Valsasina et al., 2012; cited from earlier work.
For data set [4] the following is noted: humans, phase I, even by the lowest dosages tested (Weiss et al., 2018); cited from earlier work.

As a reminder, the inhibition is the drop in the measured response relative to a control, in per cent. Broadly, the IC50 is the concentration that gives 50% inhibition.

As for `CN1CCN(c2ccc(OC(F)(F)F)c(Nc3ncc4c(n3)-c3c(c(C(N)=O)nn3CCO)CC4)c2)CC1` [onvansertib, 1-(2-hydroxyethyl)-8-{[5-(4-methylpiperazin-1-yl)-2-(trifluoromethoxy)phenyl]amino}-4,5-dihydro-1H-pyrazolo[4,3-h] quinazoline-3-carboxamide], the inhibition at 0.1 µM in the data set with human prostate tissues [1] is 45 ± 6.6%; with human prostate tissues [2], 51 ± 18.6%. Besides, the cytotoxicity at 24 h, 10 nM in data set [3] (10 nM, 24 h) came out at 15 ± 8.8%. The cytotoxicity at 48 h, 10 nM in data set [3] (10 nM, 48 h) was found to be 28 ± 8.3%. Besides, the cytotoxicity at 72 h, 10 nM in data set [3] (10 nM, 72 h) came to 40 ± 4.4%. In data set [3] (100 nM, 24 h), the cytotoxicity at 24 h, 100 nM was determined as 63 ± 2.2%. Besides, the cytotoxicity at 48 h, 100 nM in data set [3] (100 nM, 48 h) amounted to 86 ± 1.9%. Moreover, the cytotoxicity at 72 h, 100 nM in data set [3] (100 nM, 72 h) turned out to be 89 ± 1.4%. Moreover, the IC50 in the data set with CK2 was 0.826 µM. For the same compound, in data set [4], the plasma concentrations entry is recorded as “three-digit nanomolar range”.
